Data: US12331040B2 (Karyopharm Therapeutics Inc., priority 2013, dated 2025)

Assays:
Assay in all cases: MTT cell proliferation assay
Assay type in all cases: cell-based
ANBL-6 cells = conditions: Homo sapiens, 72-hour MTT
Description: (§1) The MTT cell proliferation assay was used to study the cytotoxic properties of the compounds. The assay was performed according to the method described by Roche Molecular Biochemicals, with minor modifications. The assay is based on the cleavage of the tetrazolium salt, MTT, in the presence of an electron-coupling reagent. The water-insoluble formazan salt produced must be solubilized in an additional step. Cells grown in a 96-well tissue culture plate were incubated with the MTT solution for approximately 4 hours. After this incubation period, a water-insoluble formazan dye formed. After solubilization, the formazan dye was quantitated using a scanning multi-well spectrophotometer (ELISA reader). […] The cells were seeded at 5,000-10,000 cells in each well of 96-well plate in 100 μL of fresh culture medium and were allowed to attach overnight. The stock solutions of the compounds were diluted in 100 μL cell culture medium to obtain eight concentrations of each test compound, ranging from 1 nM to 30 μM. […] All optical densities were measured at 490 nm using a Vmax Kinetic Microplate Reader (Molecular Devices). In most cases, the assay was performed in duplicate and the results were presented as a mean percent inhibition to the negative control±SE. The following formula was used to calculate the percent of inhibition: Inhibition (%)=(1−(ODo/OD))×100.
(§2) Compounds 504, 510, 525 and 585 were further tested against selected solid and hematological cancer cell lines and selected normal cell lines in a 72-hour MTT cell proliferation assay.

BT-20 cells = conditions: Homo sapiens, 72-hour MTT
Description: as §1, §2

C6 cells = conditions: Rattus norvegicus, 72-hour MTT
Description: as §1, §2

DoHH-2 cells = conditions: Homo sapiens, 72-hour MTT
Description: as §1, §2

Farage cells = conditions: 72-hour MTT
Description: as §1, §2

HCC-1428 cells = conditions: Homo sapiens, HCC1428, 72-hour MTT
Description: as §1, §2

HCC-827 cells = conditions: Homo sapiens, HCC827, 72-hour MTT
Description: as §1, §2

HCI-H358 cells = conditions: 72-hour MTT
Description: as §1, §2

HCT116.1 cells = conditions: 72-hour MTT
Description: as §1, §2

HEL.92.1.7 cells = conditions: Homo sapiens, 72-hour MTT
Description: as §1, §2

HPAC cells = conditions: Homo sapiens, 72-hour MTT
Description: as §1, §2

HTB-38 cells = conditions: 72-hour MTT
Description: as §1, §2

Hs738.st cells = conditions: 72-hour MTT
Description: as §1, §2

HuCCT-1 cells = conditions: Homo sapiens, 72-hour MTT
Description: as §1, §2

K562 cells = conditions: Homo sapiens, 72-hour MTT
Description: as §1, §2

LN18 cells = conditions: Homo sapiens, LN-18, 72-hour MTT
Description: as §1, §2

LS-174T cells = conditions: Homo sapiens, LS174T, 72-hour MTT
Description: as §1, §2

MCF-10A cells = conditions: Homo sapiens, 72-hour MTT
Description: as §1, §2

MCF-12A cells = conditions: Homo sapiens, 72-hour MTT
Description: as §1, §2

MM1R cells = conditions: MM.1R, 72-hour MTT
Description: as §1, §2

NCI-H1563 cells = conditions: Homo sapiens, 72-hour MTT
Description: as §1, §2

NCI-H1650 cells = conditions: Homo sapiens, 72-hour MTT
Description: as §1, §2

NCI-H1993 cells = conditions: Homo sapiens, 72-hour MTT
Description: as §1, §2

NCI-H2122 cells = conditions: Homo sapiens, 72-hour MTT
Description: as §1, §2

NCI-H2170 cells = conditions: Homo sapiens, 72-hour MTT
Description: as §1, §2

NCI-H520 cells = conditions: Homo sapiens, 72-hour MTT
Description: as §1, §2

NCI-H747 cells = conditions: Homo sapiens, 72-hour MTT
Description: as §1, §2

OCIAML5 cells = conditions: Homo sapiens, OCI-AML-5, 72-hour MTT
Description: as §1, §2

PATU-8988S cells = conditions: PaTuÂ 8988s, 72-hour MTT
Description: as §1, §2

PATU-8988T cells = conditions: Homo sapiens, 72-hour MTT
Description: as §1, §2

PBMC = conditions: 72-hour MTT
Description: as §1, §2

Pfieffer cells = conditions: 72-hour MTT
Description: as §1, §2

RWPE-1 cells = conditions: Homo sapiens, 72-hour MTT
Description: as §1, §2

SK-CO-1 cells = conditions: Homo sapiens, 72-hour MTT
Description: as §1, §2

SW-480 cells = conditions: Homo sapiens, SW480, 72-hour MTT
Description: as §1, §2

SW-837 cells = conditions: Homo sapiens, SW837, 72-hour MTT
Description: as §1, §2

SW-948 cells = conditions: Homo sapiens, SW948, 72-hour MTT
Description: as §1, §2

Tera-1 cells = conditions: 72-hour MTT
Description: as §1, §2

Toledo cells = conditions: Homo sapiens, 72-hour MTT
Description: as §1, §2

U-937 cells = conditions: Homo sapiens, 72-hour MTT
Description: as §1, §2

WI-38 cells = conditions: Homo sapiens, 72-hour MTT
Description: as §1, §2

`Nc1ccc(/C=C/C(=O)NCc2cc3cc(-c4ccc(C(=O)N5CCC(F)(F)CC5)cn4)cc(C(F)(F)F)c3o2)cn1` [Compound 585, (E)-3-(6-aminopyridin-3-yl)-N-((5-(5-(4,4-difluoropiperidine-1-carbonyl)pyridin-2-yl)-7-(trifluoromethyl)benzofuran-2-yl)methyl)acrylamide] gave an IC50 (ANBL-6 cells) of 1010 nM, an IC50 (BT-20 cells) of 540 nM and an IC50 (C6 cells) greater than 10000 nM. It also gave an IC50 (DoHH-2 cells) of 90 nM, an IC50 (Farage cells) of 70 nM and an IC50 (HCC-1428 cells) of 4400 nM. For the same compound, the IC50 (HCC-827 cells) was 780 nM, the IC50 (HCI-H358 cells) was 800 nM and the IC50 (HCT116.1 cells) was greater than 10000 nM. For the same compound, the IC50 (HEL.92.1.7 cells) was 120 nM, the IC50 (HPAC cells) was 380 nM and the IC50 (HTB-38 cells) was greater than 10000 nM. It also gave an IC50 (Hs738.st cells) of 450 nM, an IC50 (HuCCT-1 cells) of 60 nM and an IC50 (K562 cells) of 1090 nM. The IC50 (LN18 cells) was 1660 nM, the IC50 (LS-174T cells) was 8800 nM and the IC50 (MCF-10A cells) was 140 nM. It also gave an IC50 (MCF-12A cells) of 380 nM, an IC50 (MM1R cells) of 190 nM and an IC50 (NCI-H1563 cells) of 390 nM. It also gave an IC50 (NCI-H1650 cells) of 530 nM, an IC50 (NCI-H1993 cells) greater than 10000 nM and an IC50 (NCI-H2122 cells) of 5810 nM. The IC50 (NCI-H2170 cells) was 1260 nM, the IC50 (NCI-H520 cells) was 20 nM and the IC50 (NCI-H747 cells) was 590 nM. It also gave an IC50 (OCIAML5 cells) of 50 nM, an IC50 (PATU-8988S cells) of 470 nM and an IC50 (PATU-8988T cells) of 540 nM. For the same compound, the IC50 (PBMC) was 2200 nM, the IC50 (Pfieffer cells) was 80 nM and the IC50 (RWPE-1 cells) was 4 nM. It also gave an IC50 (SK-CO-1 cells) of 1190 nM, an IC50 (SW-480 cells) of 480 nM and an IC50 (SW-837 cells) of 600 nM. The IC50 (SW-948 cells) was 910 nM, the IC50 (Tera-1 cells) was 120 nM and the IC50 (Toledo cells) was 50 nM. For the same compound, the IC50 (U-937 cells) was 260 nM and the IC50 (WI-38 cells) was 220 nM.
